Target: Aβ1–40 fibrils (amyloid-β) (Homo sapiens, UniProt P05067)
Assay type: binding

Chain of Aβ1–40 fibrils (amyloid-β) (P05067 672-711): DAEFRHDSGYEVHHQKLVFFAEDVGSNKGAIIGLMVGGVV

Ki [nM]	SMILES
8.6	COc1cc(/C=C/c2cc(C)c(O)c(C)c2)ccc1/C=C/c1ccc(C(=O)O)cc1 [compound 1, 4-((E)-4-((E)-4-hydroxy-3,5-dimethylstyryl)-2-methoxystyryl) benzoic acid]
23.6	COc1cc(/C=C/c2ccc(O)cc2)ccc1/C=C/c1ccc(O)cc1 [compound 2, methoxy-X04]

From paper PMC8788879 (Nuclear medicine and biology, 2020)
